# Measurements: paper PMC5733030, “Characterizing Isozymes of Chlorite Dismutase for Water Treatment” (Frontiers in Microbiology, 2017)
# System: T1, MbCld
# T1 construct: gene cld; native, soluble protein fraction of chlorate-grown cells; not purified
# Experiment: chloride ion selective electrode, initial rates, Michaelis-Menten fit
# Type: biochemical, Magnetospirillum bellicus
# Conditions: 10 mM phosphate buffer pH 7.0, 21–23°C; soluble protein fraction
# Source text: chloride ion selective electrode, initial rates, Michaelis-Menten fit on MbCld
smiles,measurement,value
[O-][Cl+]O [chlorite],Km,360 ± 210 µM
